The target of test [1] is Aβ1-42 monomer assembly into Aβ oligomers (ADDLs) (Homo sapiens (Human), UniProt P05067). The test is described as follows: FRET assay of Aβ1-42 oligomer (ADDL) assembly inhibition. The test is classed as biochemical. An excerpt: Fluorescence (or Förster) Resonance Energy Transfer (FRET) is a distance-dependent, non-radiative transfer of energy in which the de-excitation of one fluorophore (donor) is coupled to excitation of another fluorophore (acceptor). FRET occurs if (1) the quantum of energy emitted by a donor fluorophore corresponds to an acceptor fluorophore's excitation energy, (2) the orientations of donor and acceptor transition dipoles are nearly parallel and (3) the donor fluorescent emission spectrum overlaps the acceptor absorption spectrum.
Aβ1-42 monomer assembly into Aβ oligomers (ADDLs), sequence (P05067 672-713): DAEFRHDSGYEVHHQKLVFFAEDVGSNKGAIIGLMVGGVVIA
In this assay, assembly of Aβ1-42 oligomer formation is monitored by FRET using N-terminal conjugates of fluorescein-Aβ1-42 as both the donor and acceptor fluorophore (fluorescein-fluorescein Ro˜45 Å). Aβ1-42 monomers assembling into oligomeric species results in a decrease of fluorescence as the fluorescein labeled Aβ1-42 peptides become proximal to each other and FRET efficiency increases. Inhibition of Aβ1-42 assembly is observed as the absence or attenuation of fluorescein quenching.
FRET and FP assays are performed in 384-well Corning Non-Binding Surface, black, opaque microtiter plates, and the assay buffer consists of 50 mM MOPS-Tris (pH 8.0) with 100 mM MgCl2. […] ADDL assembly is monitored on a Tecan GENios Pro plate reader, exciting at a wavelength of 485 nm and detecting emission at a wavelength of 515 nm. […]

For test [2] the following is noted: cited from earlier work.
For test [3] the following is noted: cited from earlier work. The source holds these as a separate data set.

We go through three compounds from patent publication US9006283B2, “Methods of modifying amyloid β oligomers using non-peptidic compounds” (Acumen Pharmaceuticals, Inc., priority 2007, dated 2015).

As for `NCCCS(=O)(=O)O` [Alzhemed, 3-amino-1-propanesulfonic acid], in test [1] (FIG. 2, standard FRET assay conditions of Example 1), the “inhibition of Aβ1-42 monomer assembly into Aβ oligomers” value was “inability”. Also, in test [2] (20 month open-label extension of Phase II trial, some patients with mild AD), the cognitive decline entry is listed as “slowed cognitive decline”. Also, in test [2] (blinded phase of the study), the efficacy entry was “no efficacy was observed”.

`Oc1c(I)cc(Cl)c2cccnc12` [Clioquinol]: the “patients' cognitive ability” value in test [3] (compared to untreated patients) is reported as “stabilize”. Further, in test [3] (patients' plasma), the “Aβ1-42 levels in plasma” value is on record as “lower”.

Regarding `CCOC(=O)c1c(NC(=O)C(=O)N/N=C/c2ccccc2O)sc2c1CCC(C)C2` (stereo not drawn) [Compound 4, 2-{[1-(2-Hydroxyphenyl)-meth-(E)-ylidene-hydrazinooxalyl]-amino}-6-methyl-4,5,6,7-tetrahydro-benzo[b]thiophene-3-carboxylic acid ethyl ester], the “inhibition of Aβ1-42 oligomer assembly” value in test [1] (FIG. 1, Test Compound A ranging from 0.05 to 3 mM (0.05 to 3 μM in figure legend)) is given as “dose dependent inhibition”.
